Assays:
CHO-K1 cells [1] = assay: Measurement of cell surface pH, CHO-K1; type: cell-based; settings: from pH=8.4 to pH=6.90, medium pH=7.4
CHO-K1 cells [2] = assay: Peptide induced cell lysis; type: cell-based; settings: CHO-K1, normal cell culture conditions, no peptide (Figures 2 and 4)
[3] = Peptide circular dichroism; type: physicochemical; settings: secondary structure by CD, 25 °C
[4] = pH sensitivity of lytic activity; type: biochemical; settings: ratio calculated from the average IC50 values of a peptide at pH=7.4 and pH=5.5
[5] = Peptide self-assembly and aggregation in solution; type: physicochemical

Structure pH=6.5 [3]	Structure pH=7.4 [3]	Molecule	pH sensitivity [4]	other results
Coil	α-helix	WLGALFKALSHLL [CL-10]	2.5	–
Coil	α-helix	WLGALFHALSKLL [CL-9]	3.0	–
Coil	α-helix	WLGALFKALSHLLGHHPH [CL-22]	13.8	–

Further lines, the molecule ahead of its results:

Molecule	Structure pH=6.5 [3]	Structure pH=7.4 [3]	pH sensitivity [4]	other results
Nc1ncnc2c1nc(Sc1ccc(Cl)cc1)n2[C@@H]1O[C@@H]2COP(=O)(O)O[C@H]2[C@H]1O [Peptide 8-CPT-cAMP, 8-CPT-cAMP]	–	–	–	Time to reduction of cell surface pH (CHO-K1 cells [1]): ≤ 30 minutes; Effect on cell viability (CHO-K1 cells [2]): no effects on the viability
FLGALFKALSKLL [PTP-7]	–	–	–	Cytotoxicity to A549 relative to CCD-13Lu (A549 and CCD-13Lu cells): equally active to both cells
FLGALFRALSHLL [CL-7]	Coil	α-helix	2.2	Aggregation at physiological pH ([5]; 40 µM peptide, 1,8-ANS 20 µM, excitation 369 nm, SEM at pH=7.4): underwent self-assembly at physiological pH; Stability of peptide aggregates under acidic conditions ([5]; 1,8-ANS 20 µM, 40 µM peptide, particle analysis at 80 µM): unstable and dissolved under acidic conditions
CO/C1=C\C(C)=C\[C@@H](C)[C@@H](O)[C@@H](C)C/C(C)=C/C=C/[C@H](OC)[C@@H]([C@@H](C)[C@@H](O)[C@H](C)[C@@]2(O)C[C@@H](O)[C@H](C)[C@@H](C(C)C)O2)OC1=O [Bafilomycin A1]	–	–	–	Effect on cell viability (CHO-K1 cells [2]): very limited effects on cell viability
FLGALFRALSRLL [CL-1]	Coil	Coil	1.2	–

Source: paper PMC4265309 (Chemical biology & drug design, 2014)
